Results reported in patent US8563257B2, “Sensitive and rapid methods of using chimeric receptors to identify autoimmune disease and assess disease severity” (Diagnostic Hybrids, Inc., priority 2000, dated 2013).
Several values for one entry are separate records, joined by “and”; a condition that tells them apart may be missing. Identical values can stand only once. Entries after “also recorded” stand apart in the source; their conditions may differ.

How the values were obtained:
[1] = tested on: CHO-RMc4luc cells; assay: Alternate glucocorticoids vs. dexamethasone in the non-starved CHO-RMc4 assay; type: cell-based, Chinese hamster; conditions: for signal intensity (RLU) compared to 40 μM dexamethasone: FIG. 17
Protocol: The data was collected in accordance with the protocol outlined in Example 17. The data was calculated as the difference (Δ) in RLU values or SRR % values for each glucocorticoid (GC) concentration by subtracting the RLU value or SRR % value for the Normal control at that concentration from the RLU value or SRR % value for the Positive control at that concentration, respectively.
Four GCs were examined in this study: i) Prednisone (Sigma); ii) Hydrocortisone (Sigma); iii) Fluticasone Propionate (Sigma); and iv) Cortisone (Sigma). A stock concentration (100 mM) of each GC was made in DMSO. 1:10 (10 mM) and 1:100 (1 mM) dilutions, in DMSO, were then made from the 100 mM stock. All DMSO/GC stocks were clear with no visible precipitate.
Growth Media containing different concentrations of each GC were made as follows: i) 100 μM GC Medium: 5 μL of 100 mM GC Stock+5 mL SR097 (w/o Dex); ii) 50 μM GC Medium: 2.5 μL of 100 mM GC Stock+5 mL SR097 (w/o Dex); iii) 10 μM GC Medium: 5 μL of 10 mM GC Stock+5 mL SR097 (w/o Dex); iii) 1 μM GC Medium: 5 μL of 1 mM GC Stock+5 mL SR097 (w/o Dex); and iv) 0.1 μM GC Medium: 0.5 μL of 1 mM GC Stock+5 mL SR097 (w/o Dex). […] Additional controls included Growth Medium containing 1 μl/ml dimethylsulfoxide (DMSO) as a solvent control and Growth Medium without any glucocorticoids.
Each assay was performed by using two (2) microwell plates for each glucocorticoid tested. The sample layouts for each plate are identified below: […]

[2] = tested on: CHO-RMc4luc cells; assay: Effect of dexamethasone on starved CHO-RMc4luc cells (luciferase); type: cell-based, Chinese hamster; conditions: for % of S/B, Patient #18 Serum: 0 uM = 100; for RLU, Patient #18 Serum, Average / S/B, Patient #18 Serum / RLU, Patient #18 Serum, Test 1-3 / RLU, Reference Serum, Avg / RLU, Reference Serum, Test 1-3: starved cells; for RLU, Patient #18 Serum, Test 1-3 / RLU, Reference Serum, Test 1-3: listed as DEX
Protocol: CHO-Rluc (041307A) and CHO-RMc4luc (062707, P8, 3e6/ml) cells were each brought up in 5 ml CHO growth media.
The cells were then rinsed with reaction buffer and serum (diluted 1:11) was added to 100 μl of reaction buffer already in the well. Serums used were: i) reference 121506R; ii) PC 121506P; and iii) patient #18 TSI serum.
After 4 hours of induction the plates were lysed with 75 ul of Bright Glo®, lysed for 5 minutes, and then read on a Veritas luminometer.

[3] = glucocorticoid 0.1 μM in Growth Medium
[4] = glucocorticoid 1 μM in Growth Medium
[5] = glucocorticoid 10 μM in Growth Medium
[6] = glucocorticoid 50 μM in Growth Medium
[7] = glucocorticoid 100 μM in Growth Medium
[8] = 40 μM in Growth Medium (control)

`CCC(=O)O[C@]1(C(=O)SCF)[C@H](C)C[C@H]2[C@@H]3C[C@H](F)C4=CC(=O)C=C[C@]4(C)[C@@]3(F)[C@@H](O)C[C@@]21C` [Fluticasone Proprionate, Fluticasone Propionate] was tested, and the “signal intensity (RLU) compared to 40 μM dexamethasone” value [1] was “equal signal intensities”, the “Δ (positive - normal) RLU” value [1, 3] was 9768 RLU and the “Δ (positive - normal) SRR % s” value [1, 3] was 161%. For the same molecule, the “Δ (positive - normal) RLU” value [1, 4] was 8806 RLU, the “Δ (positive - normal) SRR % s” value [1, 4] was 148% and the “Δ (positive - normal) RLU” value [1, 5] was 8774 RLU. The “Δ (positive - normal) SRR % s” value [1, 5] was 168%, the “Δ (positive - normal) RLU” value [1, 6] was 6996 RLU and the “Δ (positive - normal) SRR % s” value [1, 6] was 137%. The “Δ (positive - normal) RLU” value [1, 7] was 6366 RLU and the “Δ (positive - normal) SRR % s” value [1, 7] was 155%.
In the case of `C[C@]12CCC(=O)C=C1CC[C@@H]1[C@@H]2[C@@H](O)C[C@@]2(C)[C@H]1CC[C@]2(O)C(=O)CO` [Hydrocortisone], the “signal intensity (RLU) compared to 40 μM dexamethasone” value [1] is reported as “equivalent to dexamethasone; also recorded: equal signal intensities”, the “Δ (positive - normal) RLU” value [1, 3] is reported as 9889 RLU and the “Δ (positive - normal) SRR % s” value [1, 3] is reported as 158%. The “Δ (positive - normal) RLU” value [1, 4] was 9149 RLU, the “Δ (positive - normal) SRR % s” value [1, 4] was 155% and the “Δ (positive - normal) RLU” value [1, 5] was 9757 RLU. For the same molecule, the “Δ (positive - normal) SRR % s” value [1, 5] was 153%, the “Δ (positive - normal) RLU” value [1, 6] was 8950 RLU and the “Δ (positive - normal) SRR % s” value [1, 6] was 178%. For the same molecule, the “Δ (positive - normal) RLU” value [1, 7] was 8348 RLU and the “Δ (positive - normal) SRR % s” value [1, 7] was 180%.
For `C[C@]12CCC(=O)C=C1CC[C@@H]1[C@@H]2C(=O)C[C@@]2(C)[C@H]1CC[C@]2(O)C(=O)CO` [Cortisone], the “signal intensity (RLU) compared to 40 μM dexamethasone” value [1] was “equivalent to dexamethasone; also recorded: equal signal intensities”, the “Δ (positive - normal) RLU” value [1, 3] was 10494 RLU and the “Δ (positive - normal) SRR % s” value [1, 3] was 169%. For the same molecule, the “Δ (positive - normal) RLU” value [1, 4] was 9474 RLU, the “Δ (positive - normal) SRR % s” value [1, 4] was 151% and the “Δ (positive - normal) RLU” value [1, 5] was 9847 RLU. The “Δ (positive - normal) SRR % s” value [1, 5] was 151%, the “Δ (positive - normal) RLU” value [1, 6] was 8738 RLU and the “Δ (positive - normal) SRR % s” value [1, 6] was 162%. The “Δ (positive - normal) RLU” value [1, 7] was 8106 RLU and the “Δ (positive - normal) SRR % s” value [1, 7] was 176%.
For `C[C@@H]1C[C@H]2[C@@H]3CCC4=CC(=O)C=C[C@]4(C)[C@@]3(F)[C@@H](O)C[C@]2(C)[C@@]1(O)C(=O)CO` [Dexamethasone, dexamethasone], the “% of S/B, Patient #18 Serum” value ([2]; DEX 12.5 uM) was 180%, the “RLU, Patient #18 Serum, Average” value ([2]; DEX 12.5 uM) was 5165 RLU and the “S/B, Patient #18 Serum” value ([2]; DEX 12.5 uM) was 39.8. For the same molecule, the “RLU, Patient #18 Serum, Test 1-3” value ([2]; DEX 12.5 uM) was 4710 RLU and 5456 RLU and 5330 RLU, the “% of S/B, Patient #18 Serum” value ([2]; DEX 25 uM) was 183% and the “RLU, Patient #18 Serum, Average” value ([2]; DEX 25 uM) was 5194 RLU. The “RLU, Reference Serum, Avg” value ([2]; DEX 25 uM) was 127 RLU, the “S/B, Patient #18 Serum” value ([2]; DEX 25 uM) was 40.6 and the “RLU, Patient #18 Serum, Test 1-3” value ([2]; DEX 25 uM) was 5172 RLU and 5151 RLU and 5260 RLU. The “RLU, Reference Serum, Test 1-3” value ([2]; DEX 25 uM) was 129 RLU and 132 RLU, the “% of S/B, Patient #18 Serum” value ([2]; DEX 40 uM) was 182% and the “RLU, Patient #18 Serum, Average” value ([2]; DEX 40 uM) was 5092 RLU. The “RLU, Reference Serum, Avg” value ([2]; DEX 40 uM) was 126 RLU, the “S/B, Patient #18 Serum” value ([2]; DEX 40 uM) was 40.4 and the “RLU, Patient #18 Serum, Test 1-3” value ([2]; DEX 40 uM) was 5039 RLU and 5198 RLU and 5038 RLU. The “RLU, Reference Serum, Test 1-3” value ([2]; DEX 40 uM) was 128 RLU, the “% of S/B, Patient #18 Serum” value ([2]; DEX 50 uM) was 181% and the “RLU, Patient #18 Serum, Average” value ([2]; DEX 50 uM) was 5023 RLU. For the same molecule, the “RLU, Reference Serum, Avg” value ([2]; DEX 50 uM) was 125 RLU, the “S/B, Patient #18 Serum” value ([2]; DEX 50 uM) was 40.1 and the “RLU, Patient #18 Serum, Test 1-3” value ([2]; DEX 50 uM) was 4861 RLU and 5298 RLU and 4909 RLU. The “RLU, Reference Serum, Test 1-3” value ([2]; DEX 50 uM) was 135 RLU, the “% of S/B, Patient #18 Serum” value ([2]; DEX 100 uM) was 140% and the “RLU, Patient #18 Serum, Average” value ([2]; DEX 100 uM) was 3492 RLU. The “RLU, Reference Serum, Avg” value ([2]; DEX 100 uM) was 112 RLU, the “S/B, Patient #18 Serum” value ([2]; DEX 100 uM) was 31.1 and the “RLU, Patient #18 Serum, Test 1-3” value ([2]; DEX 100 uM) was 3542 RLU and 3414 RLU and 3521 RLU. For the same molecule, the “RLU, Reference Serum, Avg” value ([2]; DEX 12. uM) was 129 RLU, the “RLU, Reference Serum, Test 1-3” value ([2]; DEX 12. uM) was 129 RLU and 141 RLU and the “Δ (positive - normal) RLU” value [1, 8] was 9375 RLU. For the same molecule, the “Δ (positive - normal) SRR % s” value [1, 8] was 282%.
`C[C@]12C=CC(=O)C=C1CC[C@@H]1[C@@H]2C(=O)C[C@@]2(C)[C@H]1CC[C@]2(O)C(=O)CO` [Prednisone] was tested, and the “signal intensity (RLU) compared to 40 μM dexamethasone” value [1] was “equal signal intensities”, the “Δ (positive - normal) RLU” value [1, 3] was 8717 RLU and the “Δ (positive - normal) SRR % s” value [1, 3] was 150%. For the same molecule, the “Δ (positive - normal) RLU” value [1, 4] was 8219 RLU, the “Δ (positive - normal) SRR % s” value [1, 4] was 133% and the “Δ (positive - normal) RLU” value [1, 5] was 8429 RLU. The “Δ (positive - normal) SRR % s” value [1, 5] was 142%, the “Δ (positive - normal) RLU” value [1, 6] was 8107 RLU and the “Δ (positive - normal) SRR % s” value [1, 6] was 165%.
